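Protocol summary: plate cells (96-well), add compound at 5 concentrations, incubate 48 h, interpolate endpoints linearly. At the GI50, growth is halved. TGI marks complete inhibition of growth.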
Tests used:
Assay in all cases: NCI anticancer screen, dose series, 48 h
OVCAR-4 ovarian = system: OVCAR-4 ovarian
SF-539 CNS = system: SF-539 CNS
M14 melanoma = system: M14 melanoma
MALME-3M melanoma = system: MALME-3M melanoma
SK-OV-3 ovarian = system: SK-OV-3 ovarian
IGROV1 ovarian = system: IGROV1 ovarian
HOP-92 NSCLC = system: HOP-92 NSCLC
COLO 205 colon = system: COLO 205 colon
OVCAR-8 ovarian = system: OVCAR-8 ovarian
SF-268 CNS = system: SF-268 CNS
UACC-257 melanoma = system: UACC-257 melanoma
HS 578T breast = system: HS 578T breast
ACHN renal = system: ACHN renal
SNB-19 CNS = system: SNB-19 CNS
U251 CNS = system: U251 CNS
SK-MEL-5 melanoma = system: SK-MEL-5 melanoma
EKVX NSCLC = system: EKVX NSCLC
NCI-H226 lung = system: NCI-H226 lung
HCT-15 colon = system: HCT-15 colon
OVCAR-3 ovarian = system: OVCAR-3 ovarian
SK-MEL-28 melanoma = system: SK-MEL-28 melanoma
A549 NSCLC = system: A549 NSCLC
LOX IMVI melanoma = system: LOX IMVI melanoma
786-0 renal = system: 786-0 renal
BT-549 breast = system: BT-549 breast
SR leukemia = system: SR leukemia
NCI/ADR-RES ovarian = system: NCI/ADR-RES ovarian
PC-3 prostate = system: PC-3 prostate
HCC-2998 colon = system: HCC-2998 colon
UACC-62 melanoma = system: UACC-62 melanoma
KM12 colon = system: KM12 colon
T-47D breast = system: T-47D breast
MOLT-4 leukemia = system: MOLT-4 leukemia
TK-10 renal = system: TK-10 renal
MDA-MB-468 breast = system: MDA-MB-468 breast
CAKI-1 renal = system: CAKI-1 renal
DU-145 prostate = system: DU-145 prostate
OVCAR-5 ovarian = system: OVCAR-5 ovarian
A498 renal = system: A498 renal
SW-620 colon = system: SW-620 colon
HCT-116 colon = system: HCT-116 colon
RPMI-8226 leukemia = system: RPMI-8226 leukemia
NCI-H460 lung = system: NCI-H460 lung
MDA-MB-435 = system: MDA-MB-435
SN12C renal = system: SN12C renal
NCI-H522 lung = system: NCI-H522 lung
K-562 leukemia = system: K-562 leukemia
HOP-62 NSCLC = system: HOP-62 NSCLC
NCI-H23 lung = system: NCI-H23 lung
HT29 colon = system: HT29 colon
HL-60(TB) leukemia = system: HL-60(TB) leukemia
SF-295 CNS = system: SF-295 CNS
CCRF-CEM leukemia = system: CCRF-CEM leukemia
RXF 393 renal = system: RXF 393 renal
MCF7 breast = system: MCF7 breast

## Cc1nn(-c2ccccc2)c2nc(C)n(CC(=O)N/N=C/c3ccccc3O)c(=O)c12
OVCAR-4 ovarian
  GI50: 3.18 µM
  TGI: 42.8 µM
SF-539 CNS
  GI50: 4.46 µM
  TGI: 26.9 µM
M14 melanoma
  GI50: 2.89 µM
  TGI: 15.6 µM
MALME-3M melanoma
  GI50: 4.33 µM
  TGI: 30 µM
SK-OV-3 ovarian
  GI50: 6.5 µM
  TGI: 28.5 µM
IGROV1 ovarian
  GI50: 6.36 µM
  TGI: 66.3 µM
HOP-92 NSCLC
  GI50: 3.29 µM
  TGI: 20.6 µM
COLO 205 colon
  GI50: 2.83 µM
  TGI: 14.9 µM
OVCAR-8 ovarian
  GI50: 3.86 µM
  TGI: 21.1 µM
SF-268 CNS
  GI50: 3.31 µM
  TGI: > 100 µM
UACC-257 melanoma
  GI50: 5.46 µM
  TGI: 31.3 µM
HS 578T breast
  GI50: 9.4 µM
  TGI: 70.9 µM
ACHN renal
  GI50: 2.62 µM
  TGI: 14.7 µM
SNB-19 CNS
  GI50: 7.44 µM
  TGI: 39.2 µM
U251 CNS
  GI50: 3.93 µM
  TGI: 19.6 µM
SK-MEL-5 melanoma
  GI50: 3.75 µM
  TGI: 19.4 µM
EKVX NSCLC
  GI50: 2.55 µM
  TGI: 17 µM
NCI-H226 lung
  GI50: 12.9 µM
  TGI: 38.9 µM
HCT-15 colon
  GI50: 2.26 µM
  TGI: > 100 µM
OVCAR-3 ovarian
  GI50: 2.66 µM
  TGI: 28 µM
SK-MEL-28 melanoma
  GI50: 4.58 µM
  TGI: 33.7 µM
A549 NSCLC
  GI50: 6.12 µM
  TGI: 21.1 µM
LOX IMVI melanoma
  GI50: 1.78 µM
  TGI: 14 µM
786-0 renal
  GI50: 6.16 µM
  TGI: 31.8 µM
BT-549 breast
  GI50: 3.74 µM
  TGI: 25.4 µM
SR leukemia
  GI50: 2.43 µM
  TGI: 10.8 µM
NCI/ADR-RES ovarian
  GI50: 3.79 µM
  TGI: 17.9 µM
PC-3 prostate
  GI50: 4.47 µM
  TGI: 29.3 µM
HCC-2998 colon
  GI50: 4.29 µM
  TGI: 27.6 µM
UACC-62 melanoma
  GI50: 3.02 µM
  TGI: 12.5 µM
KM12 colon
  GI50: 4.12 µM
  TGI: > 100 µM
T-47D breast
  GI50: 4.41 µM
  TGI: 36.9 µM
MOLT-4 leukemia
  GI50: 2.59 µM
  TGI: 10.7 µM
TK-10 renal
  GI50: 7.5 µM
  TGI: 45.4 µM
MDA-MB-468 breast
  GI50: 3.36 µM
  TGI: 19.4 µM
CAKI-1 renal
  GI50: 4.93 µM
  TGI: 26.2 µM
DU-145 prostate
  GI50: 6.32 µM
  TGI: > 100 µM
OVCAR-5 ovarian
  GI50: 8.89 µM
  TGI: 51.4 µM
A498 renal
  GI50: 19.3 µM
  TGI: 83.1 µM
SW-620 colon
  GI50: 4.22 µM
  TGI: > 100 µM
HCT-116 colon
  GI50: 4.85 µM
  TGI: 18.9 µM
RPMI-8226 leukemia
  GI50: 5.53 µM
  TGI: 48.4 µM
NCI-H460 lung
  GI50: 3.59 µM
  TGI: 16.2 µM
MDA-MB-435
  GI50: 8.63 µM
  TGI: > 100 µM
SN12C renal
  GI50: 5.64 µM
  TGI: 46 µM
NCI-H522 lung
  GI50: 3.4 µM
  TGI: 22.2 µM
K-562 leukemia
  GI50: 3.48 µM
  TGI: > 100 µM
HOP-62 NSCLC
  GI50: 4.63 µM
  TGI: 21.4 µM
NCI-H23 lung
  GI50: 4.62 µM
  TGI: 22.4 µM
HT29 colon
  GI50: 4.91 µM
  TGI: 20.5 µM
HL-60(TB) leukemia
  GI50: 2.13 µM
  TGI: 7.52 µM
SF-295 CNS
  GI50: 4.79 µM
  TGI: 22.6 µM
CCRF-CEM leukemia
  GI50: 2.09 µM
  TGI: 16.8 µM
RXF 393 renal
  GI50: 4.92 µM
  TGI: 24.1 µM
MCF7 breast
  GI50: 3.62 µM
  TGI: 31.1 µM
